Source: US12054498B2, “Heteroaromatic macrocyclic ether chemotherapeutic agents” (Nuvalent, Inc., priority 2020, dated 2024)

How the values were obtained:
ALK-wt = target: T1, ALK-wt (Homo sapiens, UniProt Q9UM73); assay: Biochemical kinase assay, ALK-wt kinase domain; details: apparent inhibitory constant, Morrison equation; ATP 2 mM in substrate solution; read-out: ALK-wt Ki^app
T1 construct: purchased Carna 08-518
Procedure, shortened: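 Apparent Ki values come from fitting initial reaction rates against inhibitor concentration to the Morrison equation. Rates were taken from the linear phase of fluorogenic substrate phosphorylation (AQT0101 for ALK and ROS1, AQT0104 for TRKA; 26 μM in substrate solution with 2 mM ATP), monitored at 485 nm over 120 min at 30° C.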

ALK L1196M/G1202R = target: T2, ALK L1196M/G1202R (Homo sapiens, UniProt Q9UM73, G1202R/L1196M); assay: Biochemical kinase assay, ALK L1196M/G1202R kinase domain; details: apparent inhibitory constant, Morrison equation; ATP 2 mM in substrate solution; read-out: ALK-L1196M-G1202R Ki^app
T2 construct: purchased SignalChem A19-12NG
T2 sequence (Q9UM73 1116-1392 L1196M/G1202R limits assumed): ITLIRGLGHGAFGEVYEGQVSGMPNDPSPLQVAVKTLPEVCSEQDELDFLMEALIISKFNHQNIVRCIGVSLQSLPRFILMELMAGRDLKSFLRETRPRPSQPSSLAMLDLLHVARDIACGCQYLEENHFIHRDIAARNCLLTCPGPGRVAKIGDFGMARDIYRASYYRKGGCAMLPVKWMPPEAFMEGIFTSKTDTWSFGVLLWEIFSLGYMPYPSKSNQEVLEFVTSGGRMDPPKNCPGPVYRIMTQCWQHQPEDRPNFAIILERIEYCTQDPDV
Procedure, shortened: (§1)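 Kinase domains (in kinase solution: ROS1-G2032R 0.5 nM, ROS1-wt 0.6 nM, TRKA 1 nM, ALK L1196M/G1202R 3 nM) were mixed with compound and a substrate solution of 2 mM ATP plus 26 μM fluorogenic AQT0101 (ALK, ROS1) or AQT0104 (TRKA) in HEPES pH 7.5/MgCl2. Fluorescence was followed for 120 min at 30° C; Ki^app was obtained by Morrison fit of initial rates.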

ROS1-wt = target: T3, ROS1-wt (Homo sapiens, UniProt P08922); assay: Biochemical kinase assay, ROS1-wt kinase domain; details: apparent inhibitory constant, Morrison equation; ATP 2 mM in substrate solution; read-out: ROS1-wt Ki^app
T3 construct: purchased Carna 08-163
T3 sequence (P08922 1945-2222 limits assumed): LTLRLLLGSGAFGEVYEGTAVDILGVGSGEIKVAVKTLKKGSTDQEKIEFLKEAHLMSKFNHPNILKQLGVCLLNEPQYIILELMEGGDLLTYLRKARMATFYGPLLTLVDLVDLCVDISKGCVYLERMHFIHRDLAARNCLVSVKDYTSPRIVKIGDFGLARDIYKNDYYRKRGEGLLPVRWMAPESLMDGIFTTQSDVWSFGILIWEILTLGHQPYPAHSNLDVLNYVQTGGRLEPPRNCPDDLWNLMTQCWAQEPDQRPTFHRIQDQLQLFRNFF
Procedure, shortened: (§2)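 Compounds, as 100-fold DMSO stocks, were dispensed first, then substrate mix was added (ATP 2 mM, AQT0101 26 μM, in 50 mM HEPES pH 7.5/10 mM MgCl2). Reactions ran at 30 °C with fluorescence logged every 2 min over 120 min. Apparent inhibition constants came from fitting rates to Morrison's tight-binding equation.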

ROS1-G2032R = target: T4, ROS1-G2032R (Homo sapiens, UniProt P08922, G2032R); assay: Biochemical kinase assay, ROS1-G2032R kinase domain; details: apparent inhibitory constant, Morrison equation; ATP 2 mM in substrate solution; read-out: ROS1-G2032R Ki^app
T4 construct: purchased SignalChem R14-12BG
T4 sequence (P08922 1945-2222 G2032R limits assumed): as the sequence (P08922 1945-2222 limits assumed) above, with G88R counted along it
Procedure, shortened: as §2

TRKA-wt = target: T5, TRKA-wt (Homo sapiens, UniProt P04629); assay: Biochemical kinase assay, TRKA-wt kinase domain; details: apparent inhibitory constant, Morrison equation; ATP 2 mM in substrate solution; read-out: TRKA-wt Ki^app
T5 construct: or TRKA-wt (1 nM, BPS Bio, 40280) kinase domains in buffer; purchased BPS Bio 40280
T5 sequence (P04629 510-781 limits assumed): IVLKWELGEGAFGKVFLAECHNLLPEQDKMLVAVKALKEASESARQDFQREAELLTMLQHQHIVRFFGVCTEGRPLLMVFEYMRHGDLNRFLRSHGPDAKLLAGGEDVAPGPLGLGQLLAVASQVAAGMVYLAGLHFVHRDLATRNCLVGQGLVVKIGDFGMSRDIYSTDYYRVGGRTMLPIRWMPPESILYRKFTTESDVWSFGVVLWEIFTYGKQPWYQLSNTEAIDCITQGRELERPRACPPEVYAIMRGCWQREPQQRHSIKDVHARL
Procedure, shortened: as §1

[1] = target: T6, Ba/F3 cells CD74-ROS1 wild-type (wt) (Homo sapiens, UniProt P08922); assay: Ba/F3 cell proliferation assay, CD74-ROS1 wild-type; format: cell-based; details: 72 hours, CellTiter-Glo
T6 construct: fusion of the C-terminus of ROS1 with the N-terminus of various partner proteins; host or cells: Ba/F3 (RIKEN), retroviral pMSCV-puro; the other entry of the earlier key: CD74 (P04233, HLA class II histocompatibility antigen gamma chain)
T6 sequence (P08922 1883-2347 limits assumed): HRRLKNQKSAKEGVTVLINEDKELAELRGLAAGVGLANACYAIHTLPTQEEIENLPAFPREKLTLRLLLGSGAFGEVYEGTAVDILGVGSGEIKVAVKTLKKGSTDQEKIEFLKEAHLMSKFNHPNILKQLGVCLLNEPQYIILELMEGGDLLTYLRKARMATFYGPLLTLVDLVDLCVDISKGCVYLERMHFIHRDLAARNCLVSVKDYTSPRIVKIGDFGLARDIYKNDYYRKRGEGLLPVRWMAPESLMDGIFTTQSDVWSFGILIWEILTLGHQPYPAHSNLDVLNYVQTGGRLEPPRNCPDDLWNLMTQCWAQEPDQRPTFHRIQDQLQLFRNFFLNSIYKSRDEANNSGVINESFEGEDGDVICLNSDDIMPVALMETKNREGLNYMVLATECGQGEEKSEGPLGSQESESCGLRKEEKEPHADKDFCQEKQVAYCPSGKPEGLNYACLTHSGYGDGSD
Procedure, shortened: (§3)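 First, retrovirally infected Ba/F3 cells were made IL-3-independent and selected with puromycin (0.8 μg/mL). Next, cells were plated and rested one day. Then compounds in 3-fold dilutions were added for 72 hours before CellTiter-Glo readout.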

[2] = target: T7, Ba/F3 cells CD74-ROS1 G2032R (Homo sapiens, UniProt P08922, G2032R); assay: Ba/F3 cell proliferation assay, CD74-ROS1 G2032R; format: cell-based; details: 72 hours, CellTiter-Glo
T7 construct: fusion of the C-terminus of ROS1 with the N-terminus of various partner proteins; host or cells: Ba/F3 (RIKEN), retroviral pMSCV-puro; the other entry of the earlier key: CD74 (P04233, HLA class II histocompatibility antigen gamma chain)
T7 sequence (P08922 1883-2347 G2032R limits assumed): as the sequence (P08922 1883-2347 limits assumed) above, with G150R counted along it
Procedure, shortened: as §3

[3] = target: T8, Ba/F3 cells EML4-ALK wt (variant 1) (Homo sapiens, UniProt Q9UM73); assay: Ba/F3 cell proliferation assay, EML4-ALK wt (variant 1); format: cell-based; details: 72 hours, CellTiter-Glo
T8 construct: echinoderm microtubule-associated protein-like 4 (EML4) gene and the ALK tyrosine kinase domain; host or cells: Ba/F3 (RIKEN), retroviral pMSCV-puro; the other entry of the earlier key: EML4 (Q9HC35, Echinoderm microtubule-associated protein-like 4)
T8 sequence (Q9UM73 with tags, fused parts or gaps): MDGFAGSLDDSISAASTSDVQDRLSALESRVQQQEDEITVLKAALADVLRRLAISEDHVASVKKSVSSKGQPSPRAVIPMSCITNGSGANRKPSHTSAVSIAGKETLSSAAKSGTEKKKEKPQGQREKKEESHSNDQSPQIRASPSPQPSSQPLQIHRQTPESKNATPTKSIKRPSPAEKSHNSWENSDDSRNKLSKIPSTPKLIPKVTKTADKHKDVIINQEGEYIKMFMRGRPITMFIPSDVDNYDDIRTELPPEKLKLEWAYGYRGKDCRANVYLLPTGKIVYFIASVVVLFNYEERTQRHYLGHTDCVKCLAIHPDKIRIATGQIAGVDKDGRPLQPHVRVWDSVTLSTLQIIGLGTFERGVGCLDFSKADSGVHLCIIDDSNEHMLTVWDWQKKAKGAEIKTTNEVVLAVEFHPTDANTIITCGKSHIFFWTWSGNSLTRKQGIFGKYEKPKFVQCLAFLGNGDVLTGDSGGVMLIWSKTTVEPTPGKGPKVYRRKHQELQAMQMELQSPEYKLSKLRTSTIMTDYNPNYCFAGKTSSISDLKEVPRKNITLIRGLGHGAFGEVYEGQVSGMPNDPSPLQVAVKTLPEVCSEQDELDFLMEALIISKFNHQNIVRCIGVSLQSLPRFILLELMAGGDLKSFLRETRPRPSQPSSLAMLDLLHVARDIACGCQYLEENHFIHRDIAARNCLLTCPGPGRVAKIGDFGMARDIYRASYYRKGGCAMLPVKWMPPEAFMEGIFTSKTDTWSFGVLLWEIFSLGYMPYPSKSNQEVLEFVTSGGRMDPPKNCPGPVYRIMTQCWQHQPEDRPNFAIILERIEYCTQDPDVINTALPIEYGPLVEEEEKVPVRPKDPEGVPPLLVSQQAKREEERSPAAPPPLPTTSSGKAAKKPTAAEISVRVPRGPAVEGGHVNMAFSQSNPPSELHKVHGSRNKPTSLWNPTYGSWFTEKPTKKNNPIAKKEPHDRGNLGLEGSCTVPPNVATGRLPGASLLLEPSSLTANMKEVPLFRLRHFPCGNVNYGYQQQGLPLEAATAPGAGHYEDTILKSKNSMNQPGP
Procedure, shortened: (§4)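 IL-3-independent Ba/F3 lines stably expressing the fusion kinase (retroviral, puromycin-selected), 1,000 cells/well, treated with 3-fold compound dilutions for 72 h. Viability by CellTiter-Glo luminescence; IC50 from four-parameter logistic fit of percent inhibition.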

[4] = target: T9, Ba/F3 cells EML4-ALK L1196M/G1202R (variant 1) (Homo sapiens, UniProt Q9UM73, G1202R/L1196M); assay: Ba/F3 cell proliferation assay, EML4-ALK L1196M/G1202R (variant 1); format: cell-based; details: 72 hours, CellTiter-Glo
T9 construct: echinoderm microtubule-associated protein-like 4 (EML4) gene and the ALK tyrosine kinase domain; host or cells: Ba/F3 (RIKEN), retroviral pMSCV-puro; the other entry of the earlier key: EML4 (Q9HC35, Echinoderm microtubule-associated protein-like 4)
T9 sequence (Q9UM73 with tags, fused parts or gaps L1196M/G1202R): as the sequence (Q9UM73 with tags, fused parts or gaps) above, with L635M, G641R counted along it
Procedure, shortened: as §4

Ba/F3 cells TPM3-TRKA = target: T10, Ba/F3 cells TPM3-TRKA (Homo sapiens, UniProt P04629); assay: Ba/F3 cell proliferation assay, TPM3-TRKA; format: cell-based; details: 72 hours, CellTiter-Glo, read-out: TPM3-NTRK1-wt IC50
T10 construct: host or cells: Ba/F3 (RIKEN), retroviral pMSCV-puro; the other entry of the earlier key: TPM3 (P06753, Tropomyosin alpha-3 chain)
T10 sequence (P04629 510-796 limits assumed): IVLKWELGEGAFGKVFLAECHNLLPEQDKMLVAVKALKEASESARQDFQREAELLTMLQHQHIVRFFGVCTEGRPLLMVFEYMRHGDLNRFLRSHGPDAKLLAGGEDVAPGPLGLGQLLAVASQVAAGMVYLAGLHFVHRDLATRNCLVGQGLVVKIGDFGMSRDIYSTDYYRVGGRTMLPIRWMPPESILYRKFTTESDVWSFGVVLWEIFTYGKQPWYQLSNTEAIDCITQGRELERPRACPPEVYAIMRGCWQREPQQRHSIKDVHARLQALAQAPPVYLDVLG
Procedure, shortened: as §4

[5] = system: TPM3-NTRK1-wt IC50 / primary target IC50 (e.g. CD74-ROS1-wt); assay: TRKA selectivity in Ba/F3 cells (TRKA potency divided by primary target potency); format: cell-based; details: for TPM3-NTRK1-wt/CD74-ROS1-G2032R selectivity ratio: TRKA potency / CD74-ROS1-G2032R potency; for TPM3-NTRK1-wt/CD74-ROS1-wt selectivity ratio: TRKA potency / CD74-ROS1-wt potency; for TPM3-NTRK1-wt/EML4-ALK-L1196M-G1202R selectivity ratio: TRKA potency / EML4-ALK-L1196M-G1202R potency; for TPM3-NTRK1-wt/EML4-ALK-wt selectivity ratio: TRKA potency / EML4-ALK-wt potency
Protocol: TRKA selectivity was calculated by dividing a compound's TRKA potency by its primary target potency (e.g. TPM3-NTRK1-wt IC50/CD74-ROS1-wt IC50). Compound selectivity can be interpreted by binning ratio values: bin A for very high selectivity, ratio >30-fold; bin B for high selectivity, ratio >10-fold; bin C for moderate selectivity, ratio ≥1; and bin D for low selectivity, ratio <1. […] (nd=not determined).

T1 sequence (Q9UM73 1116-1392 limits assumed): as the sequence (Q9UM73 1116-1392 L1196M/G1202R limits assumed) above, with M81L, R87G counted along it

| Structure (SMILES) | Ki (ALK-wt) [µM] | Ki (ALK L1196M/G1202R) [µM] | Ki (ROS1-wt) [µM] | Ki (ROS1-G2032R) [µM] | Ki (TRKA-wt) [µM] | IC50 [1] [µM] | IC50 [2] [µM] | IC50 [3] [µM] | IC50 [4] [µM] | IC50 (Ba/F3 cells TPM3-TRKA) [µM] | TPM3-NTRK1-wt/CD74-ROS1-G2032R selectivity ratio [5] | TPM3-NTRK1-wt/CD74-ROS1-wt selectivity ratio [5] | TPM3-NTRK1-wt/EML4-ALK-L1196M-G1202R selectivity ratio [5] | TPM3-NTRK1-wt/EML4-ALK-wt selectivity ratio [5] |
| --- | --- | --- | --- | --- | --- | --- | --- | --- | --- | --- | --- | --- | --- | --- |
| C[C@H]1Oc2cc(cnc2N)-c2c(c(Cl)nn2CC2CC2)Cc2nn(C)cc2-c2ccc(F)cc21 [Example 90, (19R)-5-chloro-3-(cyclopropylmethyl)-16-fluoro-10,19-dimethyl-20-oxa-3,4,9,10,23-pentaazapentacyclo[19.3.1.0^2,^6.0^8,^12.0^13,^18]pentacosa-1(24),2(6),4,8,11,13,15,17,21(25),22-decaen-22-amine] | < 0.05 | < 0.05 | < 0.05 | < 0.05 | > 0.5 | 0.0001 to 0.05 | 0.0001 to 0.05 | 0.0001 to 0.05 | 0.05 to 0.5 | > 0.5 | A (bin A for very high selectivity, ratio >30-fold) | A (bin A for very high selectivity, ratio >30-fold) | A (bin A for very high selectivity, ratio >30-fold) | A (bin A for very high selectivity, ratio >30-fold) |
| C[C@H]1Oc2cc(cnc2N)-c2c(cnn2CC2CC2)Cn2nc(Cl)cc2-c2ccc(F)cc21 [Example 74, (19R)-10-chloro-3-(cyclopropylmethyl)-16-fluoro-19-methyl-20-oxa-3,4,8,9,23-pentaazapentacyclo[19.3.1.0^2,^6.0^8,^12.0^13,^18]pentacosa-1(24),2(6),4,9,11,13,15,17,21 (25),22-decaen-22-amine] | < 0.05 | < 0.05 | < 0.05 | < 0.05 | 0.05 to 0.5 | 0.0001 to 0.05 | 0.0001 to 0.05 | 0.0001 to 0.05 | 0.0001 to 0.05 | 0.05 to 0.5 | A (bin A for very high selectivity, ratio >30-fold) | A (bin A for very high selectivity, ratio >30-fold) | B (bin B for high selectivity, ratio >10-fold) | A (bin A for very high selectivity, ratio >30-fold) |
| CCc1noc2c1-c1cnc(N)c(c1)O[C@H](C)c1cc(F)ccc1-c1ccnn1C2 [Example 21, (19R)-3-ethyl-16-fluoro-19-methyl-5,20-dioxa-4,8,9,23-tetraazapentacyclo[19.3.1.0^2,^6.0^8,^12.0^13,^18]pentacosa-1(24),2(6),3,9,11,13,15,17,21 (25),22-decaen-22-amine] | < 0.05 | < 0.05 | < 0.05 | < 0.05 | 0.05 to 0.5 | 0.0001 to 0.05 | 0.0001 to 0.05 | 0.0001 to 0.05 | 0.05 to 0.5 | 0.05 to 0.5 | B (bin B for high selectivity, ratio >10-fold) | A (bin A for very high selectivity, ratio >30-fold) | C (bin C for moderate selectivity, ratio ≥1) | A (bin A for very high selectivity, ratio >30-fold) |
| C[C@H]1Oc2cc(cnc2N)-c2c(C3CCC3)noc2Cc2nn(C)nc2-c2ccc(F)cc21 [Example 26, (19R)-3-cyclobutyl-16-fluoro-10,19-dimethyl-5,20-dioxa-4,9,10,11,23-pentaazapentacyclo[19.3.1.0^2,^6.0^8,^12.0^13,^18]pentacosa-1(24),2(6),3,8,11,13,15,1 7,21(25),22-decaen-22-amine] | < 0.05 | < 0.05 | < 0.05 | < 0.05 | > 0.5 | 0.0001 to 0.05 | 0.0001 to 0.05 | 0.0001 to 0.05 | 0.0001 to 0.05 | 0.05 to 0.5 | A (bin A for very high selectivity, ratio >30-fold) | A (bin A for very high selectivity, ratio >30-fold) | C (bin C for moderate selectivity, ratio ≥1) | A (bin A for very high selectivity, ratio >30-fold) |
| C[C@H]1Oc2cc(cnc2N)-c2c(cnn2CC2CC2)Cc2nn(C)nc2-c2ccc(F)cc21 [Example 69, (19R)-3-(cyclopropylmethyl)-16-fluoro-10,19-dimethyl-20-oxa-3,4,9,10,11,23-hexaazapentacyclo[19.3.1.0^2,^6.0^8,^12.0^13,^18]pentacosa-1(24),2(6),4,8,11,13,15,17,21(25),22-decaen-22-amine] | < 0.05 | < 0.05 | < 0.05 | < 0.05 | > 0.5 | 0.0001 to 0.05 | 0.0001 to 0.05 | 0.0001 to 0.05 | 0.0001 to 0.05 | > 0.5 | A (bin A for very high selectivity, ratio >30-fold) | A (bin A for very high selectivity, ratio >30-fold) | A (bin A for very high selectivity, ratio >30-fold) | A (bin A for very high selectivity, ratio >30-fold) |
